Assay results from patent US20230093099A1, “COMPOUNDS AND METHODS OF TREATING CANCERS” (CULLGEN (SHANGHAI), INC., priority 2019, published 2023).

Columns and labels:
Format in all cases: cell-based
JAK1 = target: T1, JAK1 (Homo sapiens, UniProt P23458); assay: Immunoblot of JAK1 protein level in HEL cells; settings: 24 hours, immunoblot (FIG. 1)
T1 construct: immunoblot of JAK1/3 proteins expressed in RS4;11 cells; endogenous in cells; host or cells: RS4;11 cells
Description: HEL cells harboring JAK2-V617F mutation were treated with compounds at indicated concentrations for 24 hours. […] The concentrations required to reduce JAK2-V617 by 50% (DC50) were below 60 nM for compound JA-213.
(§1) HEL, RS4;11, MV4;11, Kasumi-1 and other cells were cultured at 37° C. with 5% CO2 in RPMI 1640 or DMEM Medium supplemented with 10% fetal bovine serum. Cells were authenticated using the short tandem repeat (STR) assays. Mycoplasma test results were negative.
Rabbit anti-JAK1 antibody (3344S), anti-JAK2 antibody (3230S), anti-JAK3 antibody (8827S), anti-TYK2 antibody (14193S), anti-FLT3 antibody (3462S), anti-RET antibody (14556S), anti-phospho-STAT3 (Tyr705) antibody (9145S) and anti-phospho-STAT5 (Tyr694) antibody (4322S) were purchased from Cell Signaling Technology. Rabbit anti-GSPT1 antibody (ab126090) was purchased from Abcam. HRP-conjugated anti-α-tubulin antibody was produced in house. Media and other cell culture reagents were purchased from Thermo Fisher. The CellTiter-Glo Luminescent Assay kit was purchased from Promega.
Cultured cells were washed with cold PBS once and lysed in cold RIPA buffer supplemented with protease inhibitors and phosphatase inhibitors (Beyotime Biotechnology). […] Total protein concentrations in the lysates were determined by BCA assays (Beyotime Biotechnology). […] Protein bands were quantitated using the accompanied software provided by Bio-Rad.

Kasumi-1 cells = assay: Cell viability assay (CellTiter-Glo) in Kasumi-1 cells; settings: for IC50: Homo sapiens, 72 h, Kasumi-1, AML, cell viability, 3 days; for cell viability inhibition in combination with pomalidomide: Kasumi-1, 3 days, pomalidomide at 10 μM (FIG. 4)
Description: (§2) MV4;11, RS4;11, Kasumi-1, HEL and other cells were treated with NVP-BSK805, TG101209 or selected degraders for 3 days at indicated concentrations following a 3-fold serial dilution.
as §1
(§3) Cells were seeded at a density of 5000 cells per well in 96-well assay plates and treated with test compounds following a 8-point or 12-point 3-fold serial dilution. Three days later, cell viability was determined using the CellTiter-Glo assay kit according to the manufacturer's instructions. The dose-response curves were determined and IC50 values were calculated using the GraphPad Prism software following a nonlinear regression (least squares fit) method.

KM12 cells = assay: Cell viability assay (CellTiter-Glo) in KM12 cells; settings: Homo sapiens, 72 h, KM12, colorectal carcinoma, 3 days
Description: as §2, §1, §3

T1 sequence (P23458 whole entry): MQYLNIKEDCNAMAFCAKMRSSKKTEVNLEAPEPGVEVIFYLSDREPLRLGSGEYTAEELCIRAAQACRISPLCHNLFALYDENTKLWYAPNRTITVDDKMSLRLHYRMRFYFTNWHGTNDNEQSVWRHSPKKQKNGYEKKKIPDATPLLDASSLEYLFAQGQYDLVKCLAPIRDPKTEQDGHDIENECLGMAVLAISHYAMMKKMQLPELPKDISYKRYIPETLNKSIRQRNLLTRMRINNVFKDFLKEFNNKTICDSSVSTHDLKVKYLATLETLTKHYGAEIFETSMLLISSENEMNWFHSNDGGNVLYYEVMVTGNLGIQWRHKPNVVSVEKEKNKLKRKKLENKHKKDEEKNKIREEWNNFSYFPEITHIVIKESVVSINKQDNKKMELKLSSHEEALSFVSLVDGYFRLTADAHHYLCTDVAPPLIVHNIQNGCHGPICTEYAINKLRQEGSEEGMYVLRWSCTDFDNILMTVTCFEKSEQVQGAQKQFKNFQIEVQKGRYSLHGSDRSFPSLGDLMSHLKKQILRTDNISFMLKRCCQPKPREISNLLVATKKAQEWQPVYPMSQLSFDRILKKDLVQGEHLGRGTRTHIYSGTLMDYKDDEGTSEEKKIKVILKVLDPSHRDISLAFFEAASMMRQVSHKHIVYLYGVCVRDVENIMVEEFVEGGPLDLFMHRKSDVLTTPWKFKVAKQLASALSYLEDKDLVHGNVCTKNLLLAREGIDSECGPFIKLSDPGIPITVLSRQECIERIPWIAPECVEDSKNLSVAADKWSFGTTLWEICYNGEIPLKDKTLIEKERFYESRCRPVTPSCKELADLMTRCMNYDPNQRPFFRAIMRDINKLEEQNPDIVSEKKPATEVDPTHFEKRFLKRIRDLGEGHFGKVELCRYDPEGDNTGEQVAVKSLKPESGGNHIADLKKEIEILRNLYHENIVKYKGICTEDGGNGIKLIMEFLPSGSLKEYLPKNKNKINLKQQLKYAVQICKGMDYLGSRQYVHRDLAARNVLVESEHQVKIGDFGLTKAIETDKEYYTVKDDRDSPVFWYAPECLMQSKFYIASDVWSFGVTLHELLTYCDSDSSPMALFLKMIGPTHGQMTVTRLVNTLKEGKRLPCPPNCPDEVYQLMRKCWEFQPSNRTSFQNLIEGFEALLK

SMILES	JAK1 protein level (JAK1)	IC50 (Kasumi-1 cells) [nM]	cell viability inhibition in combination with pomalidomide (Kasumi-1 cells)	IC50 (KM12 cells) [nM]
CS(=O)(=O)c1ccc(-c2cccc3nc(Nc4ccc(N5CCN(CC(=O)NCCCCCCCCNc6ccc7c(c6)C(=O)N(C6CCC(=O)NC6=O)C7=O)CC5)cc4)nn23)cc1 (centres unmarked) [JA-213]	able to reduce JAK1, JAK2 and JAK3 protein levels	69.1	greatly reduce the potencies of the degraders	679
O=C1CCC(N2C(=O)c3ccc(NCCCCCC(=O)N4CCC(n5cc(-c6cnc7cccc(-c8cc(F)c(CN9CCOCC9)c(F)c8)c7n6)cn5)CC4)cc3C2=O)C(=O)N1 (centres unmarked) [JA-189, 5-((6-(4-(4-(8-(3,5-difluoro-4-(morpholinomethyl)phenyl)quinoxalin-2-yl)-1H-pyrazol-1-yl)piperidin-1-yl)-6-oxohexyl)amino)-2-(2,6-dioxopiperidin-3-yl)isoindoline-1,3-dione]	able to reduce JAK1, JAK2 and JAK3 protein levels	86.3	greatly reduce the potencies of the degraders	2370
